{"source": "patent US20210355418A1", "about": "“ELECTRODE HAVING NANO STRUCTURE AT TIP” (Ion Chat Research Corporate, priority 2018, published 2021)", "assay_type_in_all_cases": "cell-based", "key": {"NG108-15 cells": {"tested_on": "NG108-15 cells", "assay": "Intracellular potential recording of cultured nerve cells with C-M magnet electrode", "details": "final external fluid concentration 800 μM; 2 days neural differentiation", "description": "NG108-15 cells were used for the purpose of showing that recording is possible from cultured nerve cells. NG108-15 cells (neuroblastoma-glioma hybrid cells) were cultured in a culture medium containing DMEM (Sigma-Aldrich), HAT supplement (Thermofisher) and 10% FBS (Biowest). NG108-15 was seeded on a cover glass that was coated with 0.1% Polyethyleneimine (pH8.4, 150 mM Sodium Tetra-Borate (Wako)), and cultured in the culture medium, in which FBS concentration was reduced to 5% from the above culture medium, and the nerve differentiation was induced by adding 500 μM Ibuprofen (Wako). […]\nPEI and PEG-gold coated magnetic nanoparticles were mixed and left at room temperature for three hours. This mixed solution is moved to the cell-adhesive surface of the neodymium magnet and left for additional fifteen minutes to magnetically bond the gold nanoparticles to the neodymium magnet electrode. […]\nSpontaneous action potentials were recorded by placing C-M electrode on cells seeded on coverslips. […]\nIn addition to the spontaneous action potential, the following experiment was conducted to confirm whether the neuronal activity by the neurotransmitter glutamate can be recorded. […] Glutamic acid was administered to the extracellular fluid (final external fluid concentration 800 μM), and the response mediated by glutamate receptors was recorded. […]"}, "[1]": {"tested_on": "differentiated NG108-15 cells", "assay": "Intracellular potential measurement by patch clamp method", "details": "10 mM", "description": "More specifically, a solution containing 2% H.A.T. in DMEM (Sigma-Aldrich) containing 10% FBS (Biowest) was used as the culture medium. According to the literature, in order to differentiate NG108-15 cells into nerve-like cells, FBS in the culture medium is reduced to 2% and the intracellular cAMP concentration is increased by applying the membrane-permeable cAMP (Dibutyryl-cAMP), but in this protocol, it was replaced with 10 uM forskolin. The culture medium was changed at intervals of 2 to 3 days.\nThis experiment verified that the intracellular potential was induced by glutamate in NG108-15 differentiated cells adjusted in (1-1) using the conventional patch-clamp method.\nMore specifically, using a glass pipette filled with an intracellular electrolyte solution containing 10 mM glutamate to differentiated NG108-15 cells, the cell membranes were tightly adhered and the glass pipette and cells were electrically integrated."}, "[2]": {"tested_on": "differentiated NG108-15 cells", "assay": "Intracellular recording with integrated electrode having nano-protrusion structure at the tip, pressed by manipulator", "details": "10 mM, integrated electrode fixed with manipulator", "description": "More specifically, 0.5 μl PEI (10 mg/ml), 20 ul gold-coated magnetic nanoparticles (NITmagold Cit manufactured by na noimmunotech), and 5 μl of 5 times the concentration HBPS (final concentration of calcium and magnesium is 1 mM) were mixed. It was kept at room temperature for 30 minutes or more. The recording surface of the magnet electrode is fixed upward, the mixed solution is dropped onto the recording surface, adsorbed by magnetic force, and the solution is evaporated at room temperature (Magele).\nAs shown in the middle drawing of FIG. 3, the entire side surface of the electrode was inserted into a silicon tube (Tyg on) of an insulator to cover it, and the area in contact with the extracellular fluid was further covered with aluminum foil as a ground material. Through the above process, the integrated electrode of the present invention was produced.\nThe integrated electrode was pressed onto the differentiated NG108-15 cells using a manipulator (FIG. 2), and the integrated electrode was fixed in a state where the nano-protrusion at the tip penetrated the cell membrane and the cells were not crushed. […]\nAfter activating the differentiated NG108-15 cells with 10 mM glutamate, the intracellular potential was measured with an integrated electrode fixed with a manipulator."}, "[3]": {"tested_on": "cardiomyocyte-like cells (iCell Cardiomyocyte2)", "assay": "Action potential recording of cardiomyocyte-like cells on conductive glass, charge amplifier (CHAMPL) mode", "details": "final concentration 100 μM in physiological saline, room temperature", "description": "Experiments were conducted using myocardial-like cells (iCell Cardiomyocyte2, CDI) as a typical example of cells with low adhesion efficiency to the surface of conductive glass. In order to improve the adhesiveness, the cells were cultured on the surface of conductive glass coated with collagen (Collagen) in a grid pattern in advance. Gold-coated magnetic nanoparticles were introduced into myocardial-like cells and penetrated the cell membrane by a magnetic field. Sodium channels were activated by sodium channel openers such as veratridine and the resulting action potentials were recorded. This experiment was performed at room temperature. […]\nNext, using SLO, gold-coated magnetic nanoparticles were introduced into the cell. […] Two days later, the culture medium was replaced with physiological saline before the experiment, and the action potentials of the cells were recorded at room temperature using the charge amplifier mode (ChargeAmpLifier (CHAMPL) mode) (FIG. 10).\nHowever, since the spontaneous action potential could not be observed in this sample (data not shown), Veratridine (Sigma-Aldrich), which acts as a sodium channel opener, was administered to a final concentration of 100 μM in physiological saline. […] Slow depolarization was observed 40 seconds after Veratridine administration, followed by spontaneous action potentials recorded (FIG. 11)."}, "NG108-15 neurons": {"tested_on": "NG108-15 neurons", "assay": "Action potential recording with 3-electrode MagEle", "details": "10 uM; cells differentiated by 2% FBS, 10 μM Forskolin", "source_text": "When manufacturing multiple electrodes using MagEle, two types of magnets, a fixed magnet, and an electrode magnet, are used. Wrap the fixed electrodes in a non-conductive material such as parafilm, and attach strip-shaped electrodes made of 2 to 4 pieces of aluminum foil.\nThis aluminum foil electrode is fixed by magnetic force to the electrode magnet from below, the side surface of the electrode magnet other than facing the cells is wrapped with a non-conductive material such as parafilm to insulate it, and “Clip on ground” is attached above the fixed magnet. A holder for fixing the manipulator is attached (FIG. 20).\nRecording was performed from NG108-15 neurons differentiated by 2% FBS, 10 μM Forskolin treatment using the 3-electrode MagEle prepared in (8-1) above (FIG. 22)."}}, "data": [{"smiles": "N[C@@H](CCC(=O)O)C(=O)O", "note": "[Glutamate, Glutamic acid]", "values": [{"measurement": "membrane potential response mediated by glutamate receptors", "setting": "NG108-15 cells", "value": "depolarization (upward change) response of the membrane potential"}, {"measurement": "time for membrane potential change to return to baseline", "setting": "NG108-15 cells", "value": "about 90 seconds"}, {"measurement": "intracellular potential response", "setting": "[1]", "value": "induced a slow depolarization and action potentials"}, {"measurement": "intracellular potential response", "setting": "[2]", "value": "Action potentials and slow depolarization were recorded"}]}, {"smiles": "COc1ccc(C(=O)O[C@H]2CC[C@@]3(C)[C@@H]4CC[C@H]5[C@]6(O)C[C@H](O)[C@@]7(O)[C@@H](CN8C[C@@H](C)CC[C@H]8[C@@]7(C)O)[C@]6(O)C[C@@]53O[C@]24O)cc1OC", "note": "[Veratridine]", "values": [{"measurement": "time to slow depolarization after administration", "setting": "[3]", "value": 40, "unit": "s"}]}, {"smiles": "CC(=O)OCC[N+](C)(C)C", "note": "[Ach]", "values": [{"measurement": "activity of nerve cell groups", "setting": "NG108-15 neurons", "value": "activity of all nerve cell groups was increased"}]}]}
